The source of these data is PubChem BioAssay (NCI).

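Test compounds were applied to cells in 96-well plates for 48 hours at 5 doses. The concentration for full growth arrest is given as TGI.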

Among the test systems are HCT-116 colon; HCT-15 colon; HL-60(TB) leukemia; LOX IMVI melanoma; MALME-3M melanoma; MCF7 breast; NCI/ADR-RES ovarian; SR leukemia; TK-10 renal; UACC-257 melanoma; UACC-62 melanoma; UO-31 renal.
Common to all, as to assay: inhibition of tumour cell growth, NCI panel, 48 h

For the compound `COc1ccc(-c2cc(-c3cc(OC)c(OC)c(OC)c3)cc(-c3cc4ccccc4oc3=O)n2)cc1`, the TGI with HCT-116 colon was 18.2 µM; in the assay on HCT-15 colon, over 100 µM; with HL-60(TB) leukemia, over 100 µM; in the assay on LOX IMVI melanoma it was over 100 µM; in the assay with MALME-3M melanoma, 23.9 µM; with MCF7 breast it was over 100 µM. Moreover, the TGI in the assay with NCI/ADR-RES ovarian was 31.6 µM; in the assay on SR leukemia, over 100 µM; with TK-10 renal it was 21.1 µM; in the assay on UACC-257 melanoma, 63.3 µM; with UACC-62 melanoma it was 33.6 µM; in the assay on UO-31 renal it was 24.7 µM.
`C1=C\CCCCN2C[C@H]3CCCC/C=C\CCCCN4CC[C@@H]([C@H](CCCCCC/1)C4)[C@H](C3)C2`: the TGI in the assay on HCT-116 colon is 4.41 µM; in the assay on HCT-15 colon it was 3.27 µM; in the assay on HL-60(TB) leukemia it was 12.1 µM; in the assay on LOX IMVI melanoma, 3.22 µM; with MALME-3M melanoma, 3.56 µM; in the assay with MCF7 breast it was 4.5 µM. The TGI in the assay on NCI/ADR-RES ovarian is 9.89 µM; in the assay on SR leukemia, over 19.8 µM; in the assay on TK-10 renal, 5.8 µM; with UACC-257 melanoma, 3.28 µM; in the assay on UACC-62 melanoma it was 3.67 µM; in the assay with UO-31 renal it was 3.16 µM.
As for `Brc1ccc2[nH]cc(-c3nc(-c4c[nH]c5ccccc45)cs3)c2c1`, the TGI in the assay with HCT-116 colon was 7.15 µM; in the assay with HCT-15 colon it was 6.89 µM; with HL-60(TB) leukemia it was 16.1 µM; in the assay with LOX IMVI melanoma, 4.68 µM; with MALME-3M melanoma it was 9.39 µM; in the assay on MCF7 breast, over 100 µM. In addition, the TGI in the assay on NCI/ADR-RES ovarian was 11.2 µM; with SR leukemia, over 100 µM; in the assay with TK-10 renal, 10.5 µM; in the assay with UACC-257 melanoma, 15.4 µM; in the assay on UACC-62 melanoma, 6.95 µM; in the assay with UO-31 renal, 13.9 µM.
With `Cc1cccc(NC(=S)Nc2ccccc2Cl)n1`, the TGI was over 100 µM with HCT-116 colon; over 100 µM in the assay on HCT-15 colon; over 100 µM in the assay with HL-60(TB) leukemia; over 100 µM with LOX IMVI melanoma; 88.3 µM in the assay on MALME-3M melanoma; over 100 µM in the assay with MCF7 breast. The TGI in the assay on NCI/ADR-RES ovarian is over 100 µM; with SR leukemia, over 100 µM; in the assay on TK-10 renal, over 100 µM; with UACC-257 melanoma, 74.2 µM; with UACC-62 melanoma, over 100 µM; in the assay on UO-31 renal it was over 100 µM.
Turning to `Cc1ccc(Nc2cc(=O)[nH]c(=S)[nH]2)cc1`, the TGI in the assay with HCT-116 colon, with HCT-15 colon, in the assay with HL-60(TB) leukemia, in the assay on LOX IMVI melanoma, in the assay on MALME-3M melanoma and in the assay on MCF7 breast was over 100 µM throughout. Also, the TGI with NCI/ADR-RES ovarian, in the assay with SR leukemia, in the assay with TK-10 renal, in the assay on UACC-257 melanoma, in the assay on UACC-62 melanoma and in the assay on UO-31 renal was over 100 µM each time.
For the compound `N#CC1(C#N)NC(c2ccsc2)C(C#N)(C#N)NC1c1ccsc1` (centres undefined), the TGI with HCT-116 colon, with HCT-15 colon, with HL-60(TB) leukemia, in the assay with LOX IMVI melanoma, with MALME-3M melanoma and with MCF7 breast was over 100 µM each time. The TGI in the assay on NCI/ADR-RES ovarian, with SR leukemia, in the assay with TK-10 renal, with UACC-257 melanoma, in the assay with UACC-62 melanoma and in the assay on UO-31 renal was over 100 µM throughout.
Take `O=[N+]([O-])c1ccc2nc(/C=C(\O)c3ccc(F)cc3)c(/C=C(\O)c3ccc(F)cc3)nc2c1`: the TGI in the assay with HCT-116 colon is over 100 µM; with HCT-15 colon it was over 100 µM; in the assay on HL-60(TB) leukemia, 55.7 µM; in the assay with LOX IMVI melanoma, over 100 µM; in the assay on MALME-3M melanoma, over 100 µM; in the assay on MCF7 breast, over 100 µM. The TGI in the assay on NCI/ADR-RES ovarian was over 100 µM; in the assay on SR leukemia, 40.9 µM; with TK-10 renal, 34.2 µM; in the assay on UACC-257 melanoma, over 100 µM; with UACC-62 melanoma, over 100 µM; in the assay with UO-31 renal it was over 100 µM.
As to `O[C@@H]1C[C@@H]2N[C@@](O)(C[C@@H]2O)[C@H]1O`, the TGI in the assay with HCT-116 colon, in the assay on HCT-15 colon, with HL-60(TB) leukemia, in the assay with LOX IMVI melanoma, with MALME-3M melanoma and in the assay with MCF7 breast was over 100 µM each time. For the same compound, the TGI in the assay on NCI/ADR-RES ovarian, in the assay with SR leukemia, in the assay on TK-10 renal, with UACC-257 melanoma, in the assay on UACC-62 melanoma and with UO-31 renal was over 100 µM in each case.
For `Cn1c2ccccc2c(=NNc2ccc(C(=O)O)cc2)c2ccccc21`, the TGI with HCT-116 colon came to 34.5 µM; in the assay on HCT-15 colon it was 38.9 µM; with HL-60(TB) leukemia, 48.6 µM; in the assay with LOX IMVI melanoma, 24.1 µM; with MALME-3M melanoma it was 40.8 µM; in the assay with MCF7 breast it was 26.5 µM. In addition, the TGI stood at 57.9 µM with NCI/ADR-RES ovarian; 42.7 µM in the assay on SR leukemia; 62.4 µM with TK-10 renal; 57 µM with UACC-257 melanoma; 44.1 µM with UACC-62 melanoma; 46.9 µM in the assay on UO-31 renal.
As to `O=[N+]([O-])c1cccnc1NCC1(CO)CC(Cc2ccccc2)C1` (centres undefined), the TGI with HCT-116 colon, with HCT-15 colon, in the assay with HL-60(TB) leukemia, with LOX IMVI melanoma, in the assay on MALME-3M melanoma and in the assay on MCF7 breast was over 100 µM throughout. Moreover, the TGI with NCI/ADR-RES ovarian, in the assay on SR leukemia, with TK-10 renal, in the assay on UACC-257 melanoma, in the assay on UACC-62 melanoma and in the assay with UO-31 renal was over 100 µM throughout.
As to `Cc1c(NC(=S)Nc2ccc(Cl)cc2)c(=O)n(-c2ccccc2)n1C`, the TGI in the assay with HCT-116 colon, in the assay on HCT-15 colon, in the assay with HL-60(TB) leukemia, in the assay on LOX IMVI melanoma, with MALME-3M melanoma and in the assay on MCF7 breast was over 100 µM each time. The TGI in the assay on NCI/ADR-RES ovarian, with SR leukemia, with TK-10 renal, with UACC-257 melanoma, in the assay with UACC-62 melanoma and with UO-31 renal was over 100 µM in each case.
`CN1CN(c2ccccc2)C2(CCN(CCc3csc4ccccc34)CC2)C1=O`: the TGI with HCT-116 colon was determined as 23.4 µM; in the assay on HCT-15 colon, 51.5 µM; in the assay on HL-60(TB) leukemia, 31.2 µM; with LOX IMVI melanoma, 32.8 µM; in the assay on MALME-3M melanoma it was 29.1 µM; with MCF7 breast, 33.9 µM. Also, the TGI in the assay with NCI/ADR-RES ovarian stood at 28.1 µM; in the assay with SR leukemia, 80.6 µM; in the assay with TK-10 renal it was 34 µM; with UACC-257 melanoma, 28.4 µM; in the assay on UACC-62 melanoma, 38 µM; in the assay on UO-31 renal, 14.3 µM.
